Series [1] relates to Salmonella Saint-Paul. The series is described as follows: MIC and MBC dose-response, serotype Saint-Paul. It is filed as cell-based. The note with it: MIC identical to MBC. As to the method:
(§1) An overnight Salmonella suspension was normalized at 0.05 OD600 (approximately 3.5×10^7 CFU/ml) with an adjusted M9 minimal broth medium (12.7 mM Na2HPO4 7H2O; 22 mM KH2PO4; 18.7 mM NH4Cl; 2 mM MgSO4; 0.1 mM CaCl2; 0.4% glucose; 0.05% casamino acids). 100 μL of the suspension plus 2 μl of SMs (200 μM) were transferred into each well of a sterile, non-treated, flat bottom 96-well plate. Bacteria alone (negative control, NC), 2% DMSO plus bacteria (DMSO control), 20 μg/ml chloramphenicol or 50 μg/ml kanamycin plus bacteria (positive controls, PC), and M9 medium only were used as control. Plates were incubated in a Sunrise™ Tecan kinetic microplate reader for 12 hrs at 37° C. and the optical density (OD) was measure at 600 nm as described above. Percentage of inhibition=(OD600 SM−OD600 NC)/(OD600 NC)×100. […] Cultures from wells showing no turbidimetric increase were transferred onto a XLT4 agar plate. Plates were incubated at 37° C. for 36 hrs.
(§2) Screens were performed as described in the primary screen. The lowest SM concentration with a static effect was considered as the minimal inhibitory concentration (MIC) and the lowest SM concentration with a cidal effect was considered as the minimal bactericidal concentration (MBC).

Series [2] has as its system S. typhimurium WT. The experiment in a line: MIC and MBC dose-response, serotype Typhimurium. The class given is cell-based, Salmonella enterica subsp. enterica serovar Typhimurium LT2. The note with it: for MIC/MBC: Salmonella serotype Typhimurium, MIC identical to MBC. The protocol:
as §1, §2

Series [3] has as its system Salmonella Enteritidis. The series is described as follows: MIC and MBC dose-response, serotype Enteritidis. The class given is cell-based, Salmonella enterica. Conditions: MIC identical to MBC. The protocol: as §1, §2
Series [4] has as its system S. typhimurium cell membrane. The series is described as follows: Crystal violet uptake after treatment with lethal dose of SMs. It is filed as cell-based. The note with it: 1 hr; for reduction of crystal violet uptake: compared to 1% DMSO control. As to the method:
(§3) To further support the observation obtained with confocal microscopy, the same samples were analyzed using scanning electron microscopy (SEM; FIG. 13P-S). […] Smaller outer membrane vesicles of approximately 20 to 70 nm were also observed covering the surface of the bacteria. […] These conclusions were further supported by measuring the crystal violet uptake and leakage of materials assessed at 260 nm after 1 hr of treatment with a lethal dose of SMs.

Series [5] has as its system Salmonella Braenderup. The series is described as follows: MIC and MBC dose-response, serotype Braenderup. The class given is cell-based, Salmonella enterica. Conditions: MIC identical to MBC.
The subject of series [6] is Salmonella Muenchen. The series is described as follows: MIC and MBC dose-response, serotype Muenchen. The class given is cell-based, Salmonella enterica. The note with it: MIC identical to MBC. As to the method: as §1, §2
Series [7] concerns Salmonella Javiana. The series is described as follows: MIC and MBC dose-response, serotype Javiana. The class given is cell-based, Salmonella enterica. The note with it: MIC identical to MBC. As to the method:
as §1, §2

Series [8] has as its system Salmonella Albany. The experiment in a line: MIC and MBC dose-response, serotype Albany. It is filed as cell-based, Salmonella enterica. Conditions: MIC identical to MBC. The protocol:
as §1, §2

Series [9] has as its system S. typhimurium WT internalized in Caco-2 cells. The experiment in a line: S. typhimurium intracellular survival in infected Caco-2 cells. The class given is cell-based. Conditions: S. Typhimurium-infected Caco-2 cells, 24 hrs treatment. The protocol: Effect of the four SMs on S. typhimurium intracellular survival in cells lines: The ability of four SMs to clear S. typhimurium WT […] was evaluated using three cell lines (Caco-2 cells, HD11, and THP-1 cells). The Salmonella intracellular survival as assessed as described (13). A multiplicity of infection “MOI” of 10 was used. Infected cells were treated with 1 μl of SMs (final concentration ranged between 100 μM and 6.25 μM) at 37° C. for 24 hrs in humidified, 5% CO2 incubator. Following incubation, cells were washed once with 150 μl of 1×PBS, lysed with 0.1% Triton-100X, serial ten-fold diluted in 1×PBS, and plated on agar plate. Plates were incubated at 37° C. for 24 hrs to determine the intracellular survival. Cells not infected and not treated, and cells infected and treated with 2% DMSO were used as controls.

Series [10] has as its system S. typhimurium cell membrane and nucleic acids. The experiment in a line: Confocal microscopy of SM-challenged S. typhimurium (FM4-64, SYTO9). The class given is cell-based, Salmonella enterica subsp. Enterica serotype Typhimurium. The note with it: 5×MBC of SMs for 3 hrs; compared to DMSO control. From the text: FIG. 13. Confocal and scanning electron microscopy (SEM) analyses of Salmonella enterica subsp. Enterica serotype Typhimurium after challenge with five times the minimal bactericidal concentration of small molecules (5×MBC of SMs) for 3 hrs. (A-O) Confocal microscopy: (A-E) S. typhimurium cell membrane stained with FM4-64; (F-J) S. typhimurium nucleic acids stained with SYTO9; (K-O) Merged pictures of the FM4-64 and SYTO9 staining. (P-S) SEM: (P) 1% dimethyl sulfoxide (DMSO) treated Salmonella; (Q) SM1 treated Salmonella; (R) SM4 treated Salmonella; (S) SM5 treated Salmonella; Bar: 1 μm.

In series [11] the test system is Salmonella Anatum. The series is described as follows: MIC and MBC dose-response, serotype Anatum. The class given is cell-based, Salmonella enterica. The note with it: MIC identical to MBC. As to the method:
as §1, §2

Series [12] concerns Salmonella Heidelberg. The series is described as follows: MIC and MBC dose-response, serotype Heidelberg. Conditions: MIC identical to MBC. The class given is cell-based, Salmonella enterica. As to the method:
as §1, §2

The test system of series [13] is S. typhimurium WT. The series is described as follows: High-throughput primary screen for S. typhimurium growth inhibitors at 200 μM. It is filed as cell-based, Salmonella enterica subsp. enterica serovar Typhimurium LT2. The note with it: adjusted M9 minimal broth, 12 hrs, 37° C., bactericidal = 100% growth inhibition and no growth on XLT4 agar, bacteriostatic = 100% growth inhibition but growth on XLT4 agar. The protocol: Identification of S. typhimurium growth inhibitors: The 4182 small molecules (SMs) were screened at 200 μM against S. typhimurium WT using HTS assay in a 96-well plate format. An overnight Salmonella suspension was normalized at 0.05 OD600 (approximately 3.5×10^7 CFU/ml) with an adjusted M9 minimal broth medium (12.7 mM Na2HPO4 7H2O; 22 mM KH2PO4; 18.7 mM NH4Cl; 2 mM MgSO4; 0.1 mM CaCl2; 0.4% glucose; 0.05% casamino acids). 100 μL of the suspension plus 2 μl of SMs (200 μM) were transferred into each well of a sterile, non-treated, flat bottom 96-well plate. Bacteria alone (negative control, NC), 2% DMSO plus bacteria (DMSO control), 20 μg/ml chloramphenicol or 50 μg/ml kanamycin plus bacteria (positive controls, PC), and M9 medium only were used as control. Plates were incubated in a Sunrise™ Tecan kinetic microplate reader for 12 hrs at 37° C. and the optical density (OD) was measure at 600 nm as described above. Percentage of inhibition=[…]. SMs were identified as growth inhibitors if their inhibition value after incubation was above 20% (value representing the inhibition level monitored with the DMSO controls). Cultures from wells showing no turbidimetric increase were transferred onto a XLT4 agar plate. Plates were incubated at 37° C. for 36 hrs.

For series [14], the system named is S. typhimurium cell membrane. The experiment in a line: Leakage of 260 nm-absorbing material after treatment with lethal dose of SMs. The class given is cell-based. Conditions: 1 hr, compared to 1% DMSO control. The protocol: as §3

Converted amounts (≈) assume the structure as drawn.

On to `CC1CCC(C(C)C)C(OC(=O)Cn2c[n+](CC(=O)OC3CC(C)CCC3C(C)C)c3ccccc32)C1.[Cl-]` (stereo not drawn) [SM1, 1,3-bis{2-[(2-isopropyl-5-methylcyclohexyl)oxy]-2-oxoethyl}-1H-3,1-benzimidazol-3-ium chloride], for which the “MIC/MBC” value in series [1] amounted to 100 µM; in [2] it was 50 µM; in series [3], 100 µM; in series [5] it was 100 µM; in series [6], 100 µM; in series [7], 100 µM. Also, the “MIC/MBC” value in series [8], in series [11] and in series [12] was 100 µM in each case. In series [4], the “reduction of crystal violet uptake” value is on record as 1.88 fold. Moreover, the “MBC (μm), Caco-2 cells” value in series [9] came out at 25 µM. In series [10], the “FM4-64 cell membrane staining phenotype” value is “No signal was detected”. For the same molecule, the “Effect on S. Typhimurium at 200 μM” value in [13] is on record as “Bactericidal”. For the same molecule, in series [14], the “increase in 260 nm-absorbing material” value is given as 2.18 fold.
As for `CCCCCCCCCCCCCCCC[n+]1ccn(CC#N)c1.[Cl-]` [SM3, 1-(cyanomethyl)-3-hexadecyl-1H-imidazol-3-ium chloride], the “MIC/MBC” value was 50 µM in series [1]; 25 µM in [2]; 25 µM in series [3]; 25 µM in [5]; 50 µM in series [6]; 25 µM in series [7]. Also, the “MIC/MBC” value was found to be 25 µM in series [8], 25 µM in [11] and 50 µM in series [12]. Further, the “reduction of crystal violet uptake” value in series [4] is 4.46 fold. The “MBC (μm), Caco-2 cells” value in series [9] was 50 µM. In series [10], the “FM4-64 cell membrane staining phenotype” value is given as “No signal was detected”. Also, the “Effect on S. Typhimurium at 200 μM” value in [13] was “Bactericidal”. Besides, in series [14], the “increase in 260 nm-absorbing material” value stood at 7.17 fold.
Turning to `CCCCCCCCCCCCCCCCn1c[n+](C)c2ccccc21.[Br-]` [SM4, 1-hexadecyl-3-methyl-1H-3,1-benzimidazol-3-ium bromide], the “MIC/MBC” value was 10 µM in series [1]; 10 µM in series [2]; 10 µM in [3]; 10 µM in [5]; 25 µM in [6]; 10 µM in series [7]. The “MIC/MBC” value in [8] worked out at 10 µM; in series [11], 10 µM; in series [12] it was 25 µM. Besides, in [4], the “reduction of crystal violet uptake” value was determined as 2.01 fold. For the same molecule, in series [9], the “MBC (μm), Caco-2 cells” value was 25 µM. Also, the “FM4-64 cell membrane staining phenotype” value in series [10] was “No signal was detected”. Further, the “Effect on S. Typhimurium at 200 μM” value in series [13] is recorded as “Bactericidal”. In addition, in series [14], the “increase in 260 nm-absorbing material” value is 15.95 fold.
As for `CCOc1cc(/C=N/N=C(N)N)ccc1OCc1ccc(Cl)cc1` [SM5, N″-{4-[(4-chlorobenzyl)oxy]-3-ethoxybenzylidene}carbonohydrazonic diamide], the “MIC/MBC” value in [1] was determined as 50 µM (≈ 17.3 µg/mL); in [2], 25 µM (≈ 8.67 µg/mL); in [3], 50 µM (≈ 17.3 µg/mL); in [5] it was 50 µM (≈ 17.3 µg/mL); in series [6], 50 µM (≈ 17.3 µg/mL); in [7], 50 µM (≈ 17.3 µg/mL). The results for the “MIC/MBC” value in [8], in [11] and in series [12] were 100 µM (≈ 34.7 µg/mL), 50 µM (≈ 17.3 µg/mL) and 50 µM (≈ 17.3 µg/mL), respectively. Further, in [2] (Salmonella enterica, TYPHIMURIUM, read-out: MBCAlone of SM), the MBC was determined as 25 µM (≈ 8.67 µg/mL). In series [4] (compared to 1% DMSO-treated cells), the “increase in permeability (crystal violet uptake)” value came to 2.32 fold. Also, the “MBC (μm), Caco-2 cells” value in series [9] was determined as 12.5 µM (≈ 4.34 µg/mL). The “FM4-64 cell membrane staining phenotype” value in series [10] is “stained cell membrane; however, a bright red spot was detected within every bacterium”. For the same molecule, the “Effect on S. Typhimurium at 200 μM” value in [13] is given as “Bactericidal”. The “increase in 260 nm-absorbing material” value in series [14] is listed as 5.25 fold.
